Test results published in PubChem BioAssay (NCI).
Values joined by “and” are separate entries in the source; they are usually repeats but may differ in a detail not shown here. Identical values can stand only once.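 96-well plates; 48 h exposure; 5 concentrations. Endpoints by linear interpolation between flanking doses. Not reached: highest tested concentration assigned. GI50 is the concentration that inhibits growth by half. TGI denotes the concentration required for complete inhibition of growth.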

Key:
Assay in all cases: NCI anticancer screen, dose series, 48 h
EKVX NSCLC = tested on: EKVX NSCLC
HCC-2998 colon = tested on: HCC-2998 colon
SNB-75 CNS = tested on: SNB-75 CNS
SW-620 colon = tested on: SW-620 colon
SF-539 CNS = tested on: SF-539 CNS
CCRF-CEM leukemia = tested on: CCRF-CEM leukemia
KM12 colon = tested on: KM12 colon
MDA-MB-435 = tested on: MDA-MB-435
SR leukemia = tested on: SR leukemia
T-47D breast = tested on: T-47D breast

SMILES	TGI (EKVX NSCLC)	TGI (HCC-2998 colon)	TGI (SNB-75 CNS)	TGI (SW-620 colon)	TGI (SF-539 CNS)	TGI (CCRF-CEM leukemia)	TGI (KM12 colon)	GI50 (SW-620 colon) [µM]	GI50 (MDA-MB-435) [µM]	TGI (MDA-MB-435) [µM]	GI50 (SR leukemia) [µM]	TGI (SR leukemia) [µM]	GI50 (T-47D breast) [µM]	TGI (T-47D breast) [µM]	GI50 (KM12 colon) [µM]	GI50 (EKVX NSCLC)	GI50 (HCC-2998 colon) [µM]	GI50 (SNB-75 CNS)	GI50 (SF-539 CNS) [µM]	GI50 (CCRF-CEM leukemia)
CC(C)(C)NNC(=O)CCn1[nH]c(=O)c(Cl)c(Cl)c1=O	> 100 µM	> 100 µM	> 100 µM	> 100 µM	> 100 µM	> 100 µM	> 100 µM													
CC1=C(C(=O)Nc2ccc(F)c(Cl)c2)C(c2ccccc2O)NC(=S)N1 (stereo unspecified)				> 50 µM			> 50 µM	> 50	32.2	> 50	34.8	> 50	> 50	> 50	> 50					
CCOC(=O)c1cnc2c(ccc3[nH]n(C)nc32)c1=O	> 100 µM	> 100 µM	> 100 µM	36.8 µM		> 100 µM	> 100 µM					> 100								
CO/N=C(/C)c1cccc(Nc2cc(-n3nnc4ccccc43)nc3ccccc23)c1	86.2 µM	> 100 µM	> 100 µM	> 100 µM	> 100 µM	> 100 µM	5.78 µM	34.1	14.8	39.4			> 100	> 100		27.3 µM	25.7	> 100 µM	45.5	20.7 µM
CCCCCCCCCCCCCC(=O)OCC(C[As](=O)(O)O)OC(=O)CCCCCCCCCCCCC (stereo unspecified)	> 100 µM	> 100 µM	> 100 µM	47 µM	> 100 µM	> 100 µM	> 100 µM					> 100								
C(=NCCN1CCOCC1)=NC1CCCCC1	> 100 µM		> 100 µM	> 100 µM	> 100 µM		> 100 µM			> 100		> 100		> 100						
Cc1ccc(S(=O)(=O)Nc2ccccc2C=O)cc1	61.1 µM		57.7 µM	47.5 µM	5.08 µM		33.5 µM			34.9		86.3		72.7						
CC(C)CCC1CC2C(=O)N(c3ccccc3)C(=O)C2c2[nH]c3ccccc3c21 (stereo unspecified)	11.6 µM	11.2 µM	9.25 µM	13.1 µM	10.8 µM	16.8 µM	14.8 µM					23.9								
Clc1ccc2c(c1)[nH]c1c2nc2ccccn21	> 100 µM and 63.2 µM	63.3 µM and 13.8 µM	> 100 µM and 37.2 µM	38.3 µM and 45.3 µM	50.3 µM and 30.6 µM	71.3 µM and 48.9 µM	35.7 µM and 32 µM					> 100				51.9 µM and 21.6 µM		32.7 µM and 14.7 µM		22.8 µM and 7.18 µM
CC12C/C(=C\c3ccccc3)C(=O)C3C1CCCC32		> 100 µM	> 100 µM	> 100 µM	> 100 µM	> 100 µM	> 100 µM					> 100								
CC(=O)CCn1c(=S)sc2ccccc21	> 100 µM	> 100 µM	> 100 µM	> 100 µM	> 100 µM	> 100 µM	> 100 µM			> 100										
O=CCC1CCCCC1	> 100 µM		> 100 µM	> 100 µM	> 100 µM		> 100 µM			> 100				> 100						
COC(=O)C(C(=O)c1ccccc1)C(C(=O)C(=O)Nc1ccc(OC)cc1OC)C(=O)C(=O)c1ccc(C)cc1 (stereo unspecified)	> 100 µM	> 100 µM	> 100 µM	> 100 µM	> 100 µM	> 100 µM	> 100 µM					> 100								
CC(C)C(CCl)NC(=O)c1cccc(C(=O)N[C@H](CCl)C(C)C)n1 (stereo in doubt)	> 100 µM	> 100 µM	> 100 µM	> 100 µM	> 100 µM	> 100 µM	> 100 µM					> 100								
O=C1c2ccccc2C(=O)N1CCn1ccc(NC(c2ccccc2)(c2ccccc2)c2ccccc2)nc1=O	> 100 µM	37.7 µM	74 µM	> 100 µM	30.6 µM	59.3 µM	49.1 µM													
COC(=O)C1c2cc3c(cc2C(OC2OC(C)C(OC)C(C)(OC)C2OC)CC1(C)O)C(=O)c1c(O)cc2c(c1C3=O)OC1OC2(C)C(O)C([N+](C)(C)[O-])C1O (stereo unspecified)	4.59 µM		1.86 µM	> 23.8 µM		0.921 µM								0.847						
N.N.N.N.O=C([O-])CCl.O=C([O-])CCl.[Co+3].[O-][Cl+3]([O-])([O-])[O-]	> 100 µM	> 100 µM	> 100 µM	> 100 µM	> 100 µM	> 100 µM	> 100 µM	> 100							> 100	> 100 µM	> 100	61.3 µM	> 100	> 100 µM
CC(=O)OC1COC(Oc2c(C)c3c4c(c2O)[C@@H](C)CC[C@@H]4[C@@H](C)C[C@H]3C=C(C)C)C(O)C1OC(C)=O (stereo partly specified)	45.5 µM	8.84 µM		> 100 µM	42.6 µM	33.4 µM	36.4 µM	36.4	10.8	23.8			20.1	56.4	17.4	22.6 µM	2.3		22.4	12 µM
N#Cc1c(N)nc(N2CCOCC2)c(C#N)c1-c1ccncc1	> 100 µM	64.3 µM	> 100 µM	> 100 µM	> 100 µM	> 100 µM	> 100 µM	> 100	> 100	> 100			12.6	51.7	> 100	66.7 µM	13.3	41.4 µM	> 100	> 100 µM
CC[As](CC)SC[C@H](C)C(=O)N1CCC[C@H]1C(=O)O	1.72 µM		0.628 µM	0.11 µM	0.136 µM	0.0573 µM	1.27 µM	0.0344	0.0305	0.114	< 0.01	0.0102	0.414	1.96	0.301	0.162 µM		0.0796 µM	0.0291	0.017 µM
O=C(O)c1nnsc1-c1ccc(-c2snnc2C(=O)O)cc1	> 100 µM		> 100 µM	> 100 µM	69.7 µM	9.63 µM	> 100 µM			> 100		> 100		> 100						
Cc1cn2c(=O)c3ncn(C4OC(CO)C(O)C4O)c3n(C)c2n1 (stereo unspecified)	> 100 µM	> 100 µM	> 100 µM	> 100 µM	> 100 µM	> 100 µM	> 100 µM													
